Data: EP3319638B1, “CINEOL-CONTAINING COMPOSITION FOR THE TREATMENT OF TUMOURS AND/OR CANCERS” (Maria Clementine Martin Klosterfrau Vertriebsgesellschaft …, priority 2015, dated 2017)
“Also recorded” adds a separate entry of the source.

Key:
[1] = system: aktivem β-Catenin; assay: Western blot of whole-cell protein: expression level of active β-catenin in HNSCC cell lines; type: cell-based, human; conditions: 24 h incubation, 100 µM, versus medium control (Fig. 1A)
Experimental: (§1) Die im Rahmen der vorliegenden Erfindung untersuchten adhärenten humanen Kopf-Hals-Plattenepithel-Karzinom-Zelllinien (UT-SCC16A, UT-SCC-16B, UT-SCC-60A und UT-SCC-60B) werden in "Dulbecco's Modifiziertem Eagle's Medium" (DMEM, 4,5 g/l D-Glucose und L-Glutamin), welches mit 10 % fötalem Rinderserum (FBS) (beide Life Technologies, Carlsbad, CA, USA), 1 % Natriumpyruvat (PAN-Biotech, Aidenbach, Deutschland) und 1 % Antibiotika (10.000 U/ml Penicillin, 10.000 µg/ml Streptomycin) (Biochrom, Berlin, Deutschland) supplementiert ist, bei 37 °C unter 5 % CO2 und 95 % LuftAtmosphäre gelagert.
(§2) Anti-Phospho-GSK-3α/β-Antikörper (Serin-21/-9) (#9331) und Anti-GAPDH-Antikörper (#2118) werden über Cell Signaling Technology (Danvers, MA, USA) bezogen. Beide Antikörper werden in einer […]-Verdünnung in TBS mit 3 % BSA (PAA Laboraties, Pasching, Österreich) verwendet. Anti-Phospho-GSK-3a/β-Antikörper (Y279/Y216) (#ab6847) werden von Abcam (Cambridge, UK) erhalten und in einer 1 : 1.000-Verdünnung in TBS mit 3 % BSA verwendet. Der gegen aktives-β-Catenin gerichtete Antikörper (#05-665) wird über Merck Milipore (Billerica, MA, USA) bezogen und in einer Verdünnung von 1 : 2.000 in TBS und 3 % Milchpulver (Carl Roth, Karlsruhe, Deutschland) verwendet. […]

[2] = system: phosphoryliertem GSK-3α/β (Serin-9/-21); assay: Western blot: phosphorylation level of GSK-3α/β at Ser-9/-21 in HNSCC cell lines; type: cell-based, human; conditions: 100 µM, HNSCC cell lines (Fig. 1B)
Experimental: as §1, §2

[3] = system: GSK-3α/β (Tyrosin-279/-216); assay: Western blot: phospho-GSK-3α/β at Tyr-279/-216 in HNSCC cell lines; type: cell-based, human; conditions: 100 µM, HNSCC cell lines (Fig. 1C)
Experimental: as §1, §2

[4] = system: Phospho-GSK-3 (Serin-9/-21); assay: Immunohistochemistry: subcellular (endolysosomal) localisation of phospho-GSK-3; type: cell-based, human; conditions: 100 µM, versus control medium (Fig. 2)
Experimental: Zur Detektion von […] innerhalb der Tumorzellen wird eine immunohistochemische Methode eingesetzt. Die Zellen werden 24 Stunden vor der Behandlung mit 100 µM Cineol in 4-Well-Kammerobjektträgern (Sarstadt AG, Numbrecht, Deutschland) überführt. Nach der Inkubation wurde das Medium entfernt und die Zellen wurden zweimal in PBS gewaschen. Zur intrazellulären Färbung wurden die Zellen mit 0,1 % Triton-X-100 (Sigma-Aldrich Chemie GmbH, Steinheim) in PBS fixiert. Der spezifische primäre Antikörper Anti-Phospho-GSK-3α/β (Serin-21/-9) (#9331) (Cell Signaling, Danvers, MA, USA) wird mit einem Antikörper-Verdünnungspuffer, welcher Blocking-Puffer (DCS LabLine, DCS, Hamburg, Deutschland) enthält, auf 1 : 50 verdünnt und in einer luftbefeuchteten Kammer für 1 Stunde bei Raumtemperatur (RT) inkubiert. Nach Waschen mit PBS wird der zweite Antikörper Ziege-anti-Maus FITC (Jackson ImmunoResearch Laboratories, West Grove, USA) in einer Verdünnung von 1 : 100 für 45 Minuten inkubiert. Die Zellen werden dreimal mit PBS gespült. Die Zellkerne werden für 1 Minute unter Einsatz von DAPI (1 µg/ml, Roche Diagnostics, Mannheim, Deutschland) gefärbt. Die Proben werden dreimal für 5 Minuten mit PBS gespült und anschließend in Fluoromount G (Southern Biotechnologies Associates, Birmingham, Alabama, USA) eingebettet. […]

[5] = system: Akt; assay: Western blot: Akt expression in HNSCC cell lines; type: cell-based, human; conditions: 100 µM, HNSCC cell lines (Fig. 3)
Experimental: as §1
(§3) Die Zellen werden zweimal in eiskaltem PBS gewaschen und anschließend in RIPA-Puffer (Cell Signaling Technology, Danvers, MA, USA) mit Aprotinin, Pepstatin A, Protease Inhibitor Cocktail und Phenylmethansulfonylfluorid (Sigma-Aldrich, St. Louis, MO, USA) für 1,5 Stunden lysiert. Durch Zentrifugation (13.000 rpm, 4 °C, 10 Minuten) werden Zelltrümmer entfernt. Die Proteinkonzentration wird mittels des Bradford-Tests mit einfach konzentriertem Quick StartTM Dye Reagent (Bio-Rad Laboratories, Hercules, CA, USA) bestimmt. Es wird vierfach konzentrierter SDS-Probenpuffer hinzugefügt, und die Proben werden für 5 Minuten bei 95 °C denaturiert. Äquivalente Proteinmengen (30 µg) werden mittels SDS-PAGE in einem 10 % Polyacrylamidgel aufgetrennt und mittels Immunoblot auf Nitrocellulosemembranen übertragen. […]

[6] = system: P-Akt (Threonin-308); assay: Western blot: Akt phosphorylation at Thr-308 in HNSCC cell lines; type: cell-based, human; conditions: 100 µM, HNSCC cell lines (Fig. 3)
Experimental: as §1, §3

[7] = system: Wnt11; assay: RT2 EMT Profiler PCR array: Wnt11 mRNA level in HNSCC cell lines; type: cell-based, human; conditions: 100 µM, HNSCC cell lines (Fig. 4A)
Text: PCR-Test zur humanen epithelial-mesenchymalen Transition (EMT) Mit dem "Human Epithelial to Mesenchymal Transition (EMT) RT^2 Profiler™ PCR Array" wird die Expression von 84 Schlüsselgenen, welche ihre Expression während dieses Prozesses verändern oder die Expression von sich verändernden Genen regulieren, festgestellt. Der Test umfasst für Zelloberflächenrezeptoren, extrazelluläre Matrix und das Zytoskelett kodierende Gene, Gene, welche Zelladhäsion, Migration, Motilität und Morphogenese steuern; sowie Gene für Signaltransduktion und Transkriptionsfaktoren, welche die EMT sowie die damit assoziierten Prozesse bedingen.
Weiterhin werden im Hinblick auf die Wnt/β-Catenin-Signalgebung aufgrund ihrer Involvierung in die Regulation der epithelial-mesenchymalen Transition (EMT) die transkriptionellen Profile verschiedener Gene, welche in Zusammenhang mit EMT stehen, in Reaktion auf 1,8-Cineol untersucht. Dafür wird der PCR-basierte "RT^2 EMT Profiler" eingesetzt, welcher die umfassende Analyse von 84 verschiedenen, in Zusammenhang mit EMT stehenden Genen erlaubt.

[8] = system: Wnt11; assay: Western blot: Wnt11 protein expression in HNSCC cell lines; type: cell-based, human
Experimental: Die Zellen werden zweimal in eiskaltem PBS gewaschen und anschließend in RIPA-Puffer (Cell Signaling Technology, Danvers, MA, USA) mit Aprotinin, Pepstatin A, Protease Inhibitor Cocktail und Phenylmethansulfonylfluorid (Sigma-Aldrich, St. Louis, MO, USA) für 1,5 Stunden lysiert. Durch Zentrifugation (13.000 rpm, 4 °C, 10 Minuten) werden Zelltrümmer entfernt. Die Proteinkonzentration wird mittels des Bradford-Tests mit einfach konzentriertem Quick StartTM Dye Reagent (Bio-Rad Laboratories, Hercules, CA, USA) bestimmt. Es wird vierfach konzentrierter SDS-Probenpuffer hinzugefügt, und die Proben werden für 5 Minuten bei 95 °C denaturiert. Äquivalente Proteinmengen (30 µg) werden mittels SDS-PAGE in einem 10 % Polyacrylamidgel aufgetrennt und mittels Immunoblot auf Nitrocellulosemembranen übertragen. Für die Proteinextraktion aus Geweben werden die Gewebe zunächst in 500 µl RIPA-Puffer mit Protease-Inhibitoren unter Einsatz des TissueLyser LT (Qiagen, Hilden, Deutschland) homogenisiert, anschließend inkubiert und wie zuvor beschrieben zentrifugiert.
Die Membranen werden mit TBS, enthaltend 3 % BSA oder 3 % Milchpulver, für 1 Stunde bei Raumtemperatur geblockt und anschließend mit dem primären Antikörper über Nacht bei 4 °C inkubiert. Nach einem Waschschritt mit TBS werden die Membranen mit dem speziesspezifischen sekundären Antikörper für 1 Stunde bei Raumtemperatur inkubiert. Die Proteinbanden werden unter Einsatz von Amersham™ ECL™ Primer Western Blotting Detection Reagent (GE Healthcare, Chalfont St Giles, Buckinghamshire, UK) und Fusion-FX7 sowie der korrespondierenden Software Fusion Bio-1D V12.14 (Vilber-Lourmat, Eberhardzell, Deutschland) nach ausgiebigem Waschen visualisiert. Die Nitrozellulosemembranen werden über Nacht bei 4 °C mit einem GAPDH-Antikörper inkubiert, um die Beladung jeder Spur zu bestimmen. Die Membranen werden nochmals gewaschen und mit dem sekundären Antikörper und ECL Detektionsreagenz inkubiert. […]

[9] = system: HNSCC-Zellen; assay: MTT test: proliferation and viability of HNSCC cells, 288 h incubation; type: cell-based, human; conditions: 700 µM, MTT (Fig. 5)
Text: (§4) Die Zellproliferation wird mittels eines quantitativen kolorimetrischen 3-(4,5-Dimethylthiazol-2-yl)-2,5-diphenyltetrazoliumbromid-basierten (MTT) Zelltests bestimmt. Dieser Test bestimmt die Anzahl der lebensfähigen Zellen auf Basis der mitochondrialen Konversion von MTT.
(§5) Dazu werden 5.000 Zellen in jedes Well einer 96-Well-Platte verteilt. Nach 24 Stunden Kultivierung werden vier verschiedene Konzentrationen von 5-Fluoruracil oder Cisplatin zu den Kulturen hinzugefügt oder die Zellen werden mit drei Dosen bestrahlt. Nach 48 Stunden werden in jedes Well 10 µl MTT-Farbstoff (5 mg/ml) zugefügt. Nach zwei Stunden Inkubation mit MTT wurden die Kristalle gelöst und vorsichtig für 24 Stunden bei Raumtemperatur geschüttelt. Mithilfe eines Multi-Well-ELISA-Lesegeräts wird die Absorption der reduzierten Formazan-Produkte in Kontrolle und Proben-Wells bei einer Welle von 570 nm und 690 nm bestimmt. Alle Wachstumsproben des MTT-Tests werden in dreifacher Ausführung ausgeführt.
Dosisabhängige Inhibition der Proliferation von HNSCC durch 1,8-Cineol Um zu bestimmen, ob die Behandlung mit 1,8-Cineol zu einer Inhibition der zellulären Lebensfähigkeit von HNSCC führt, werden MTT-Tests durchgeführt. Zu diesem Zweck werden die Zellen für 288 Stunden in 300 µM bzw. 700 µM Cineol inkubiert.

[10] = system: HNSCC-Zelllinien; assay: MTT assay: vitality and proliferation of HNSCC cell lines, 250 h culture; type: cell-based, human
Text: as §4, §5
(§6) Es werden weiterführende Untersuchungen durchgeführt zur Analyse des Einflusses von Cineol auf die Vitalität und Proliferation verschiedener permanenter Zelllinien. Hierzu werden einerseits die zwei HNSCC-Zelllinien und des Weiteren eine Fibroblastenzelllinie verwendet. Diese werden über einen Zeitraum von 250 Stunden mit verschiedenen Cineol-Konzentrationen kultiviert (1 mM bis 10 mM) und die Vitalität der Zellen wird jeweils mittels eines MTT-Assays untersucht.

[11] = system: Fibroblastenzelllinie; assay: MTT assay: vitality and proliferation of a fibroblast cell line, 250 h culture; type: cell-based
Text: as §4, §5, §6

[12] = from a concentration of 1mM to 2mM

## CC12CCC(CC1)C(C)(C)O2 [1,8-Cineol, 1,3,3-Trimethyl-2-oxabicyclo[2.2.2]octan]
[1]
  Expressionslevel von aktivem β-Catenin: starke Abnahme von aktivem β-Catenin
[2]
  Level von bzw. Gehalt an phosphoryliertem GSK-3α/β (Serin-9/-21): verringerten Level von bzw. Gehalt an phosphoryliertem GSK-3α/β (Serin-9/-21)
[3]
  Expressionslevel von GSK-3α/β (Tyrosin-279/-216): nicht nennenswert beeinflusst
[4]
  endolysosomale Lokalisation von GSK-3: Rückgang der endolysosomalen Lokalisation von Phospho-GSK-3 (Serin-9/-21); also recorded: verringerte endolysosomale Lokalisation von GSK-3
[5]
  Expression von Akt: Weder die Expression noch die Phosphorylierung von Threonin-308 von Akt wird in den analysierten Zelllinien nennenswert beeinflusst
[6]
  Phosphorylierung von Threonin-308 von Akt: Weder die Expression noch die Phosphorylierung von Threonin-308 von Akt wird in den analysierten Zelllinien nennenswert beeinflusst
[7]
  mRNA-Level von Wnt11: starken Rückgang der mRNA-Level von Wnt11
[8]; cell lines 16A, SCC154, 60B and Carey24, 24 h, 1mM
  Proteinexpression von Wnt11: starke Herunterregulation von Wnt11
[8]; cell lines 16B and 60A, 24 h, 1mM
  Wnt11 Proteinexpression: Rückgang der Wnt11 Proteinexpression, auch wenn dieser geringer ist
[8]; dose dependence, six HNSCC cell lines (Fig. 4B)
  Proteinexpression von Wnt11: dosisabhängig in Reaktion auf 1,8-Cineol abnimmt
[9]
  Proliferation und zelluläre Lebensfähigkeit von HNSCC-Zellen: stark verringerte zelluläre Lebensfähigkeit
[9]; listed as Cineol
  Proliferation und zelluläre Lebensfähigkeit von HNSCC-Zellen: starker Rückgang der Proliferation und zellulären Lebensfähigkeit
[10]; 1 mM to 10 mM
  Einfluss auf die Progression und Vitalität von HNSCC: inhibierender Einfluss
[10]; 10mM
  zytotoxische Wirkung: deutlich zytotoxische Wirkung
[10]; [12]
  proliferationshemmende Wirkung: starke proliferationshemmende Wirkung
[11]; 1 mM to 10 mM
  Einfluss auf die Progression und Vitalität von Fibroblasten: inhibierender Einfluss
[11]; 10mM
  zytotoxische Wirkung: deutlich zytotoxische Wirkung
[11]; [12]
  proliferationshemmende Wirkung: starke proliferationshemmende Wirkung
